This is an account of results in PMC9504583, “Stability Study, Quantification Method and Pharmacokinetics Investigation of a Coumarin–Monoterpene Conjugate Possessing Antiviral Properties against Respiratory Syncytial Virus” (Pharmaceuticals, 2022).

Read-outs that look alike come from different tables or passages of the source.

Series [1] can be described thus: stability study in whole mice blood in vitro. Conditions: spike 1000 ng/mL, aliquots 5-240 min, peak area. The class given is in vitro ADME. Here is the method: To study the stability of K-142 in whole blood of mice, a spike containing the substance at the concentration of 1000 ng/mL was prepared. After preparation, the spike was placed on a shaker and shaken throughout the experiment. Aliquots of the spike with a volume of 50 μL were taken after 5, 10, 15, 30, 60, 120, 180 and 240 min, after which the sample was prepared and analyzed, and K-142 peak area in obtained chromatograms was measured.
It can be seen from the chart (Figure S1) showing the K-142 peak area in the chromatogram that no decrease in its concentration happens for at least 4 h.

Series [2] relates to RSV serotype A. More on the design: method as in PMID 34946573. The note with it: cited from earlier work.
Series [3] is described as follows: pharmacokinetics study of K-142 after oral administration to mice. The series is classed as in vivo, CD1 mice. Conditions: 20 mg/kg. As to the method: The method has been applied to a pharmacokinetic study of the agent K-142 in mice (n = 8). The substance was administered to the animals orally at a dose of 20 mg/kg. After drug administration, blood samples were taken from the tail vein and treated with the precipitating solution, and the samples were analyzed.
The maximum values of concentrations observed for animals vary in the range from 15 to 90 ng/mL, and the average value is about 46 ng/mL. Thereafter, the content of the substance in the blood gradually decreases, and almost complete excretion is achieved in about 2 h. As the average concentration of K-142 in mice blood was c.a. 3.1 ng/mL, which is below LLOQ, this time point was not included in calculation of pharmacokinetics parameters and is shown in Figure 5 just for information. Due to the same reason, the data on the concentrations of the agent K-142 in animal #8 were also not taken into account for the calculation. The averaged values of pharmacokinetic parameters were calculated for a period of time from 0 to 60 min and are given in Table 1.
Experiments were performed on adult CD1 mice (n = 8) weighing 30–40 g. Animals were obtained from the animal facility of the Institute of Cytology and Genetics SB RAS and kept under standard conditions with free access to food and water. All experiments were performed in accordance with the “European Convention for the Protection of Vertebrate Animals Used for Experimental and other Scientific Purposes”, 1986.
Pharmacokinetics of the agent K-142 was studied at a dose of 20 mg/kg after its oral administration. To prepare the dosage form, a weight of the substance was mixed with c.a. 20 µL of Tween-80 followed by the dilution of the sample with physiological saline to a volume of 0.2 mL per 10 g of mouse bodyweight. Blood aliquots (10 µL) were taken in duplicate from the animal tail vein 10, 20, 30, 45 min, 1, 1.5, 2, 2.5 3, 4, 5 and 6 h after substance administration. The samples were mixed with the precipitation solution and processed according to the protocol and analyzed. Pharmacokinetic parameters were calculated using PKSolver and are presented as mean ± standard error of mean (SEM).

In series [4] the test system is RSV serotype B. Set-up: method as in PMID 34946573. The note with it: cited from earlier work.
On the set-up of series [5]: method as in PMID 27420975. Conditions: rats, cited from earlier work.
Details of series [6]: method as in PMID 31847686. Conditions: ICR mice, oral, cited from earlier work.
Where [7] appears, read: CD1, mouse, whole blood, mean ± SEM, calculated 0-60 min, animal #8 excluded.

On to `CC1(C)C2CC=C(COc3ccc4c5c(c(=O)oc4c3)CCCC5)C1C2` (centres unmarked) [K-142], for which the “time with no decrease in concentration (stability)” value in series [1] is recorded as “at least 4 h”. Also, in series [2] (RSV serotype A), the IC50 is 5 µM. In addition, the “selectivity index (SI)” value in series [2] (RSV, serotype not specified for SI) is given as 77. The CL entry in series [3] (mean ± SEM, calculated 0-60 min, animal #8 excluded) is on record as “(1.3 ± 0.2) × 10^−2 (mg/kg)/(ng/mL)/min”. For the same compound, in series [3] (whole blood), the “time at which maximum concentration is reached” value was found to be 10 min and the “time to almost complete excretion” value is listed as “about 2 h”. In addition, the concentration at 2 h in series [3] (CD1, mouse, whole blood, below LLOQ (5 ng/mL), not used for PK calculation, read-out: average concentration in mice blood at about 2 h) was approximately 3.1 ng/mL. For the same compound, in series [3] (setting [7]), the AUC(0-inf) was 26.2 ng·h/mL, the Cmax was 63.4 ± 19.1 ng/mL and the half-life is 27.7 ± 5.4 min. In addition, the MRT inf in series [3] (CD1, mouse, whole blood, mean ± SEM, calculated 0-60 min, animal #8 excluded, read-out: MRT0–∞ (converted)) was 40.5 min. Moreover, in series [4], the half-inhibitory concentration (IC50) is 5 µM.

As to `CC(C)=CCC/C(C)=C/COc1ccc2ccc(=O)oc2c1` [auraptene], in series [5] (oral, 100 mg/kg, plasma), the Tmax is on record as 108.0 ± 25.3 min and the “maximum concentration in blood plasma” value was 1719 ± 384.3 ng/mL. In addition, the bioavailability in series [5] is on record as 8.5%.

Consider `CC(C)=CCc1c(O)ccc2ccc(=O)oc12` [osthenol], for which, in series [6] (5 mg/kg), the Cmax is recorded as 66.1 ± 3.2 ng/mL and the Tmax is given as 36.3 ± 13.8 min. Moreover, in series [6] (20 mg/kg), the Cmax is reported as 56.0 ± 29.1 ng/mL and the Tmax is recorded as 6.3 ± 1.3 min. The “bioavailability (in words)” value in series [6] (5 and 20 mg/kg) was “very low bioavailability”.
